Measurements from PubChem BioAssay AID328 (DTP/NCI, 2004).
Several values for one entry are separate records, joined by “and”; a condition that tells them apart may be missing. Equal entries are not always repeated. Inconclusive results and toxic doses are left out. How the source made its calls: active means survival T/C of 150% or more; inactive means T/C below 125% in these data.

Test system: BDF1 mice, P388 leukemia ip, median survival T/C
Test: NCI In Vivo Anticancer Drug Screen. Data for tumor model P388 Leukemia (intraperitoneal) in B6D2F1 (BDF1) mice
Conditions: endpoint: median survival time, higher = longer survival
How it was run: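 T/C = treated-group survival ÷ vehicle-control survival; tumour transplanted into mice before dosing.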

[1] = dose: 100.0 mg/kg/injection, schedule: Q01DX009 (ip), vehicle: Klucel (hydroxypropylcellulose) (HPC)
[2] = dose: 50.0 mg/kg/injection, schedule: Q01DX009 (ip), vehicle: saline with Tween-80
[3] = dose: 100.0 mg/kg/injection, schedule: Q01DX009 (ip), vehicle: saline with Tween-80
[4] = dose: 200.0 mg/kg/injection, schedule: Q01DX009 (ip), vehicle: saline with Tween-80
[5] = dose: 25.0 mg/kg/injection, schedule: Q04DX003 (ip), vehicle: Klucel (hydroxypropylcellulose) (HPC)

Measured: T/C

O=C(O)CSc1ccc(NC(=O)Nc2ccccc2F)cc1
inactive: [1] 105 % of control | dose: 200.0 mg/kg/injection, schedule: Q01DX009 (ip), vehicle: Klucel (hydroxypropylcellulose) (HPC) 105 % of control | dose: 400.0 mg/kg/injection, schedule: Q01DX009 (ip), vehicle: Klucel (hydroxypropylcellulose) (HPC) 105 % of control

CC(=O)NC(=O)NC(C)=O
inactive: dose: 100.0 mg/kg/injection, schedule: Q01DX001 (ip), vehicle: saline 91 % of control | dose: 200.0 mg/kg/injection, schedule: Q01DX001 (ip), vehicle: saline 91 % of control | dose: 400.0 mg/kg/injection, schedule: Q01DX001 (ip), vehicle: saline 91 % of control

O=C1C(F)=C(N2CC2)C(=O)C(N2CCOCC2)=C1N1CC1
active: dose: 3.0 mg/kg/injection, schedule: Q01DX009 (ip), vehicle: saline 157 % of control
inactive: dose: 6.0 mg/kg/injection, schedule: Q01DX009 (ip), vehicle: saline 99 % of control

COc1cc2c(cc1OC)[C@H]1CNC[C@H]1[C@@H](c1ccccc1)C2
inactive: dose: 95.0 mg/kg/injection, schedule: Q01DX001 (ip), vehicle: Klucel (hydroxypropylcellulose) (HPC) 100 % of control | dose: 100.0 mg/kg/injection, schedule: Q01DX001 (ip), vehicle: Klucel (hydroxypropylcellulose) (HPC) 100 % of control and 110 % of control | dose: 135.0 mg/kg/injection, schedule: Q01DX001 (ip), vehicle: Klucel (hydroxypropylcellulose) (HPC) 104 % of control | dose: 200.0 mg/kg/injection, schedule: Q01DX001 (ip), vehicle: Klucel (hydroxypropylcellulose) (HPC) 95 % of control and 104 % of control | dose: 300.0 mg/kg/injection, schedule: Q01DX001 (ip), vehicle: Klucel (hydroxypropylcellulose) (HPC) 90 % of control

CS(=O)CC(O)(c1ccccc1)c1ccncc1 (configuration not stated)
inactive: [2] 99 % of control | [3] 112 % of control | [4] 110 % of control

Cc1ccc(C)c2c1CCCC2=O
inactive: [2] 86 % of control | [3] 90 % of control | [4] 100 % of control | dose: 400.0 mg/kg/injection, schedule: Q01DX009 (ip), vehicle: saline with Tween-80 86 % of control

NC(CSC(c1ccccc1)(c1ccccc1)c1ccc(Cl)cc1)C(=O)O (configuration not stated)
active: dose: 33.0 mg/kg/injection, schedule: Q04DX003 (ip), vehicle: saline with Tween-80 190 % of control | [2] 272 % of control | dose: 50.0 mg/kg/injection, schedule: Q04DX003 (ip), vehicle: saline with Tween-80 190 % of control | dose: 75.0 mg/kg/injection, schedule: Q04DX003 (ip), vehicle: saline with Tween-80 272 % of control

CC(=N/O)/C(C)=N\O
inactive: dose: 6.25 mg/kg/injection, schedule: Q01DX009 (ip), vehicle: Klucel (hydroxypropylcellulose) (HPC) 110 % of control | dose: 25.0 mg/kg/injection, schedule: Q01DX009 (ip), vehicle: Klucel (hydroxypropylcellulose) (HPC) 95 % of control | [5] 95 % of control | dose: 50.0 mg/kg/injection, schedule: Q01DX009 (ip), vehicle: Klucel (hydroxypropylcellulose) (HPC) 110 % of control and 120 % of control | dose: 75.0 mg/kg/injection, schedule: Q01DX009 (ip), vehicle: Klucel (hydroxypropylcellulose) (HPC) 100 % of control | [1] 120 % of control | dose: 100.0 mg/kg/injection, schedule: Q04DX003 (ip), vehicle: Klucel (hydroxypropylcellulose) (HPC) 95 % of control | dose: 100.0 mg/kg/injection, schedule: Q04DX003 (ip), vehicle: other 100 % of control

C#CC(N)=O
inactive: dose: 12.5 mg/kg/injection, schedule: Q04DX003 (ip), vehicle: Klucel (hydroxypropylcellulose) (HPC) 100 % of control | [5] 90 % of control

CCOC(=O)C(c1cccc(OC)c1)C1(C(=O)OCC)CC2(CCC1=O)OCCO2 (configuration not stated)
inactive: dose: 50.0 mg/kg/injection, schedule: Q01DX001 (ip), vehicle: saline sonified 104 % of control | dose: 100.0 mg/kg/injection, schedule: Q01DX001 (ip), vehicle: saline sonified 100 % of control | dose: 200.0 mg/kg/injection, schedule: Q01DX001 (ip), vehicle: saline sonified 100 % of control
